{"source": "ChEMBL document CHEMBL1149270", "about": "“Design and synthesis of a potent and selective peptidomimetic inhibitor of caspase-3” (J Med Chem, 2004)", "key": {"[1]": {"target": "T1, Caspase-6 (Homo sapiens) (UniProt P55212)", "T1 sequence (whole entry)": "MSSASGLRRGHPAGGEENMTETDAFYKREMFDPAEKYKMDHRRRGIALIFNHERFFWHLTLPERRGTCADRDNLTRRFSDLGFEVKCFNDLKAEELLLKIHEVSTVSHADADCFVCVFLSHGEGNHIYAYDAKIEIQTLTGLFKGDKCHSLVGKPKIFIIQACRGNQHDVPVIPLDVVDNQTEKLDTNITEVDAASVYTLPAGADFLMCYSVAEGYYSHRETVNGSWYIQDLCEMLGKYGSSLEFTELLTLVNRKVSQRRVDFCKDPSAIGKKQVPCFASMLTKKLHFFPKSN", "test": "Effect on recombinant caspase 6 activity at 210 nM relative to control"}, "[2]": {"target": "T2, Caspase-3 (Homo sapiens) (UniProt P42574)", "T2 sequence (whole entry)": "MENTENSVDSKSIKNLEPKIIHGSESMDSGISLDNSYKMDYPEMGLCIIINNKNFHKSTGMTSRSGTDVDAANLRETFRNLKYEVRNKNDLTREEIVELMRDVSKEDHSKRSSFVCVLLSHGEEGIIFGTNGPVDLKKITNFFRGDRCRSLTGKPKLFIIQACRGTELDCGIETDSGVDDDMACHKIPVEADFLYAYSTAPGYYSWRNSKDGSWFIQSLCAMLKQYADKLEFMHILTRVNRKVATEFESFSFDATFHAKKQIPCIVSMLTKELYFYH", "test": "[…] caspase 3 activity at 210 nM relative to control", "design": "scale not given: the % may be the effect or the level left"}, "[3]": {"target": "T3, Caspase-4 (Homo sapiens) (UniProt P49662)", "T3 sequence (whole entry)": "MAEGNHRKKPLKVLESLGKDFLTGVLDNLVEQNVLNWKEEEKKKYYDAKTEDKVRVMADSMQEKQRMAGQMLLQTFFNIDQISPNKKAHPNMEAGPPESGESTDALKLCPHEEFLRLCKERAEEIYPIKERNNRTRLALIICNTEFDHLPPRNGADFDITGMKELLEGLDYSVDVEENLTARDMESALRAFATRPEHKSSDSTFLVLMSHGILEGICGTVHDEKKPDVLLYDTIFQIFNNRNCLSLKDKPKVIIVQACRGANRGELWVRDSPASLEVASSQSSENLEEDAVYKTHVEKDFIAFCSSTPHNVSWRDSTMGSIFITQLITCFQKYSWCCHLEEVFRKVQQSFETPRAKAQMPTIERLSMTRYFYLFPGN", "test": "Effect on recombinant caspase 4 activity at 210 nM relative to control"}}, "data": [{"smiles": "CC(=O)N[C@@H](CC(=O)O)C(=O)NC1N=C(c2ccccc2)c2ccccc2N(CC(=O)N[C@H]2CC(=O)OC2O)C1=O", "note": "(stereo partly drawn)", "values": [{"measurement": "Activity", "setting": "[1]", "result": 58, "unit": "%"}, {"measurement": "Activity", "setting": "[2]", "result": 9, "unit": "%"}, {"measurement": "Activity", "setting": "[3]", "result": 95, "unit": "%"}]}]}
